The source of these data is US9034918B2, “Composition including at least one trans-cinnamaldehyde and the use thereof in the treatment of bacterial infections, specifically in the treatment of nosocomial infections” (SEPTEOS, priority 2009, dated 2015).

What all share (format): cell-based
Assay [1] has as its system Gram-positive bacteria and Gram-negative bacteria, resistant strains. As to the kind of experiment: Agar test, summary over the strains tested. To be noted: also on resistant strains, low volume concentrations. The text has this:
For bacteria to have good accessibility (aqueous phase multiplication only) to essential oils, it is essential to find a method of aqueous phase solubilization. This step is neglected in much work that directly uses the lipid phase, which is inaccessible to bacteria (oil-soaked disc placed on agar). Moreover, for the topical use of oils, this solubilization phase is also essential, and with the goal of practical application, surfactants and solubilization adjuvants are also selected for their satisfactory cutaneous tolerance.
The final preparation includes: 1.0 ml of essential oil, 3.4 ml of Tween 80 and 5.6 ml of 10% molar propylene glycol aqueous solution.
The day before the test, inoculate the strains in BH medium and on tilted MHA. Prepare test tubes containing 19 ml and 18 ml of MHA. Prepare test tubes containing 5 ml of 10% molar propylene glycol for the various dilutions.
On the day of the test, solubilize the trans-cinnamaldehyde as follows: • 1 ml of trans-cinnamaldehyde • 3.4 ml of Tween 80 • 5.6 ml of 10% molar propylene glycol.
When the trans-cinnamaldehyde is solubilized, prepare successive 1/2 dilutions in 10% molar propylene glycol.
Add 1 ml of suitable dilutions in the test tubes containing 19 ml of medium, homogenize well and pour into Petri dishes. […]

Assay [2] deals with E. coli ATCC 25922. The experiment in a line: Antibiogram by diffusion technique (CA-SFM 2008). The arrangement: Diameter (D): unit not given here. The text has this: Three clinical categories were selected for interpretation of the in vitro sensitivity tests: sensitive (S), resistant (R) and intermediate (I). • The strains categorized S are those for which the probability of therapeutic success is high in the case of treatment by systemic route with the dosing schedule recommended in the summary of product characteristics (SPC) prepared by the French Health Products Safety Agency ([…]). • The strains categorized R are those for which there is a high probability of therapeutic failure regardless of treatment type and antibiotic dose. • The strains categorized I are those for which therapeutic success cannot be predicted. These strains form a heterogeneous group for which the results obtained in vitro are not predictive of therapeutic success. […] The intermediate category is also a buffer zone which takes into account technical and biological uncertainties. The sensitivity of strains to antibiotics was determined by a diffusion technique according to the 2008 recommendations by the Antibiogram Committee of the French Microbiology Society (CA-SFM). In terms of critical concentrations and diameters, strains are categorized as follows: • sensitive (S): strains for which the MIC of the antibiotic tested is less than or equal to the lower critical concentration c, which is equivalent to a diameter greater than or equal to the critical diameter D; • resistant (R): strains for which the MIC of the antibiotic tested are greater than the upper critical concentration C, corresponding to a diameter less than the critical diameter d; • intermediate sensitivity (I): strains for which the MIC of the antibiotic tested and the corresponding diameter are between the two critical concentrations and the two critical diameters. The tests were carried out on Mueller-Hinton agar. An inoculum adjusted to 0.5 on the McFarland scale is then diluted to 1/100. Petri dishes are inoculated by swabbing. The dishes are read after 24 hours of incubation at 37° C. The raw results are then interpreted according to the interpretative reading rules of the CA-SFM. Two examples: all strains of methicillin-resistant Staphylococcus are resistant to all beta-lactams, and the same is true for gentamicin-resistant strains; golden staph is necessarily resistant to kanamycin (and amikacin) and tobramycin. The quality of the diffusion method is controlled using E. coli strain ATCC 25922.

Assay [3] deals with Enterococcus strain 8153. The experiment in a line: Antibiogram by diffusion technique (CA-SFM 2008). Details: Diameter: unit not given here. The essentials: (§1)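 Disc diffusion per CA-SFM 2008 on Mueller-Hinton agar; inoculum at McFarland 0.5 diluted 1/100, applied by swabbing. Read after 24 hours at 37° C; zone diameters interpreted by CA-SFM rules as S, I or R against critical diameters D and d.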

In assay [4] the test system is Enterococcus strain 8152. As to the kind of experiment: Antibiogram by diffusion technique (CA-SFM 2008). The arrangement: Diameter: unit not given here. The essentials: as §1
Assay [5] concerns strain 9010, Acinetobacter baumannii, with VEB-1 ESBL. As to the kind of experiment: Antibiogram by diffusion technique (CA-SFM 2008). In short, it runs like this: as §1
Assay [6] deals with strain 9007, Pseudomonas aeruginosa, with VIM-2 carbapenemase. The experiment in a line: Antibiogram by diffusion technique (CA-SFM 2008). The essentials:
as §1

The test system of assay [7] is Enterococcus faecium (9001). As to the kind of experiment: Antibiogram by diffusion technique (CA-SFM 2008). As to conditions: strain 9001. In short, it runs like this:
as §1

For assay [8], the system named is golden staph (S. aureus) strain 8147. As to the kind of experiment: Antibiogram by diffusion technique (CA-SFM 2008). Details: D: unit not given here. The essentials: as §1
Assay [9] relates to E. coli strain 8156. As to the kind of experiment: Antibiogram by diffusion technique (CA-SFM 2008). Details: D: unit not given here. In short, it runs like this:
as §1

Assay [10] concerns Pseudomonas aeruginosa strain 8128. As to the kind of experiment: Antibiogram by diffusion technique (CA-SFM 2008). Details: D: unit not given here. In short, it runs like this:
as §1

Assay [11] relates to Pseudomonas aeruginosa strain 8129. The experiment in a line: Antibiogram by diffusion technique (CA-SFM 2008). The arrangement: D: unit not given here. The essentials: as §1
Assay [12] has as its system E. coli strain 8157. The experiment in a line: Antibiogram by diffusion technique (CA-SFM 2008). The arrangement: D: unit not given here. In short, it runs like this:
as §1

Assay [13] deals with E. coli strain 8154. As to the kind of experiment: Antibiogram by diffusion technique (CA-SFM 2008). The arrangement: D: unit not given here. The essentials: as §1
The subject of assay [14] is golden staph (S. aureus) strain 8240. The experiment in a line: Antibiogram by diffusion technique (CA-SFM 2008). The arrangement: D: unit not given here. In short, it runs like this:
as §1

Assay [15] has as its system E. coli strain 8155. The experiment in a line: Antibiogram by diffusion technique (CA-SFM 2008). The arrangement: D: unit not given here. The essentials:
as §1

For assay [16], the system named is golden staph (S. aureus) strain 8239. As to the kind of experiment: Antibiogram by diffusion technique (CA-SFM 2008). Details: D: unit not given here. In short, it runs like this:
as §1

Assay [17] has as its system Pseudomonas aeruginosa strain 8132. The experiment in a line: Antibiogram by diffusion technique (CA-SFM 2008). The arrangement: D: unit not given here. In short, it runs like this:
as §1

For assay [18], the system named is Pseudomonas aeruginosa strain 8134. As to the kind of experiment: Antibiogram by diffusion technique (CA-SFM 2008). Details: D: unit not given here. In short, it runs like this: as §1
Assay [19] has as its system Enterobacter aerogenes (9004). As to the kind of experiment: Antibiogram by diffusion technique (CA-SFM 2008). To be noted: strain 9004. In short, it runs like this: as §1
Assay [20] deals with E. coli strain 9003. The experiment in a line: Antibiogram by diffusion technique (CA-SFM 2008). The essentials:
as §1

Take `O=C/C=C/c1ccccc1` [trans-cinnamaldehyde]: the “Spectrum of antibacterial activity” value in assay [1] is “antibacterial activity on both Gram-positive bacteria and Gram-negative bacteria”.

Turning to `C[C@H]1COc2c(N3CCN(C)CC3)c(F)cc3c(=O)c(C(=O)O)cn1c23` [Levofloxacin], the “Category (Cat.)” value in [2] is reported as “S”. Moreover, the “Diameter (D)” value in [2] stood at 31. Further, the Category result is “S” in [3]; “S” in assay [4]; “R” in assay [5]; “S” in [6]; “R” in assay [7]. The values for the Diameter in assay [3] and in [4] were 26 and 29, respectively. The Cat. entry was “R” in assay [8]; “S” in assay [9]; “S” in assay [10]; “S” in [11]; “R” in assay [12]; “S” in assay [13]. Moreover, the Cat. result is “R” in assay [14]; “S” in [15]; “R” in [16]; “R” in assay [17]; “R” in assay [18]. Moreover, the D stood at 10 in [8]; 31 in assay [9]; 23 in [10]; 26 in assay [11]; 11 in [12]; 36 in assay [13]. The D came out at 0 in assay [14]; 31 in assay [15]; 10 in [16]; 0 in [17]; 0 in [18].

With `NC[C@H]1O[C@H](O[C@H]2[C@H](O)[C@@H](O[C@H]3O[C@H](CO)[C@@H](O)[C@H](N)[C@H]3O)[C@H](N)C[C@@H]2N)[C@H](O)[C@@H](O)[C@@H]1O` [Kanamycin], the “Category (Cat.)” value in [2] was “S”. Further, in assay [2], the “Diameter (D)” value was 22. Besides, the Category entry in assay [3], in assay [4], in assay [5], in [6] and in assay [7] was “R” throughout. For the same compound, the Diameter was 14 in assay [3] and 10 in assay [4]. Besides, the Cat. entry is recorded as “S” in [8]; “S” in assay [9]; “R” in assay [10]; “R” in assay [11]; “S” in assay [12]; “S” in assay [13]. Also, the Cat. entry is on record as “R” in assay [14]; “S” in assay [15]; “S” in assay [16]; “R” in [17]; “R” in [18]. The D in assay [8] is 22; in assay [9] it was 27; in [10] it was 9; in [11] it was 10; in assay [12] it was 24; in [13], 24. The D is given as 12 in assay [14]; 23 in [15]; 26 in assay [16]; 0 in [17]; 14 in assay [18].

In the case of Gentamicin, the “Category (Cat.)” value in [2] is “S”. For the same compound, the “Diameter (D)” value in assay [2] was determined as 25. In addition, the Category result in assay [3] is on record as “R”; in assay [4], “R”; in assay [5] it was “R”; in [19] it was “S”; in assay [6] it was “S”; in assay [20], “S”. The Category entry in assay [7] was “S”. Also, the results for the Diameter in [3] and in [4] were 14 and 15, respectively. Moreover, the Cat. result in assay [8], in assay [9], in assay [10], in assay [11], in assay [12] and in assay [13] was “S” in each case. The Cat. result was “S” in assay [14]; “S” in assay [15]; “S” in assay [16]; “R” in assay [17]; “R” in assay [18]. The D in [8] was 26; in assay [9], 25; in assay [10], 27; in assay [11] it was 21; in assay [12] it was 25; in [13], 21. For the same compound, the D in assay [14] came to 27; in assay [15], 21; in assay [16] it was 28; in assay [17], 16; in assay [18], 0.
